How the values were obtained:
[1] = test system: diabetic db/db mice; experiment: Passive avoidance test (short-term memory) in diabetic db/db mice (Experimental Example 7); type: in vivo; details: 14 and 28 weeks of age, compared to the control mice
From the text: In this study, 4-5 week old diabetic db/db mice were put onto a diet containing probucol 0.1% (w/w) or HA-1 0.2% (w/w) for either 10 or 24 weeks, till the age of 14 or 28 weeks, respectively. Passive avoidance test was used to assess short-term memory. Subsequently, the mice were sacrificed to obtain plasma and brain tissue samples for further analyses.

[2] = test system: Caspase 3/9 protein; experiment: Caspase assay; type: cell-based; details: OC-1 cells under stressful, toxic conditions (FIG. 31)
Method: The caspase assay was carried as per manufacturer's instructions (abcam, NSW, Australia), as described below.
• Collagen coated cover slip • Fixing agent: 4% paraformaldehyde • Permeabilization agent 0.5% of Tween 20 or trition-X 100 diluted in PBS • Blocking: 1% BSA in PBST may also be used. • PBST: 0.1% Tween 20 in PBS • Primary abs (1:500 in PBS) • Secondary abs (1:1000 in PBS) • Hoechst (Nuclear stain)
First day: Fixation, permeabilize, blocking and add a primary antibody to the cells, as described below:
• Start by aspirating culture medium from each well followed by fixation of the cells with 4% Using 4% paraformaldehyde in PBS pH 7.4 for 10 min at room temperature. (Add one ml in each well). • Shake a plate for a few seconds.
0.5% of Tween 20 or trition-X 100 diluted in PBS. […]
• Make coverslips ready to be mounted onto microscope slides. • Take a clean slide and dispense one drop of antifade mounting medium by slowly from the pipette into the slide. • Carefully remove a coverslip from the well and allow excess wash to drip off and place the cells face down onto the slide. • Clear fingernail polish can be used to seal the coverslip and prevent it from drying out. • Visualized slide under microscope. […]

Compound: CC(=O)O[C@@H]1CC[C@@]2(C)[C@H](CC[C@@H]3[C@@H]2CC[C@]2(C)[C@@H]([C@H](C)CCC(=O)Oc4c(C(C)(C)C)cc(SC(C)(C)Sc5cc(C(C)(C)C)c(O)c(C(C)(C)C)c5)cc4C(C)(C)C)CC[C@@H]32)C1 [HA-1, 2,6-di-tert-butyl-4-((2-((3,5-di-tert-butyl-4-hydroxyphenyl)thio)propan-2-yl)thio)phenyl (4R)-4-[(3R,5R,8R,9S,10S,13R,14S,17R)-3-acetoxy-10,13-dimethyl-2,3,4,5,6,7,8,9,11,12,14,15,16,17-tetradecahydro-1H-cyclopenta[a]phenanthren-17-yl]pentanoate]
- passive avoidance latency (short-term memory) [1]: significantly increased the latency
- protection against programmed cell death (caspase-3 activation) / viable cell population [2]: significant protection against programmed cell death

From patent publication US20240374739A1, “BILE ACID CONJUGATE” (Curtin University, priority 2021, published 2024)
